Among the data in ChEMBL document CHEMBL1201862, “PubChem BioAssay data set” (2004) are EC50, IC50 and AC50 values, retold here.

Where a name gives a salt, the structure may show the parent alone. Active and inactive are the calls of the source.

Test [1] addresses T1, G-protein coupled receptor 55 (Homo sapiens, UniProt Q9Y2T6). Nature of the test: selective activators of receptor GPR55 – imaging, U2OS cells, beta-arrestin-GFP redistribution, primary screen (AID 1961). It counts as functional.
Test [2] addresses Mu-type opioid receptor (Homo sapiens, UniProt P35372). Nature of the test: SAR Analysis of Antagonists of the MOR Receptor using an Image-Based Assay - Set 3. [Related pubchem assays (depositor defined):AID1777, AID1785, AID1786, AID1966, AID2133, AID2136, AID2284, AID2285, AID2420]. The test is classed as functional.
Test [3] deals with T2, Kappa-type opioid receptor (Homo sapiens, UniProt P41145). Nature of the test: SAR analysis of small molecule antagonists of the kappa opioid receptor via a luminescent beta-arrestin assay - Set 3. [Related pubchem assays (depositor defined):AID1777, AID1778, AID1785, AID1786, AID1966, AID2133, AID2136, AID2285, AID2495]. The test is classed as functional.
In test [4] the target is T2, Kappa-type opioid receptor. Nature of the test: SAR analysis of Antagonists of the Kappa Opioid Receptor (KOR) using an Image-Based Assay - Set 4. [Related pubchem assays (depositor defined):AID1777, AID1785]. The test is classed as functional.
Test [5] deals with Delta-type opioid receptor (Homo sapiens, UniProt P41143). Nature of the test: SAR Analysis of Antagonists of the DOR Receptor using an Image-Based Assay - Set 3. [Related pubchem assays (depositor defined):AID1777, AID1785]. The test is classed as functional.
For test [6], the target named is T1, G-protein coupled receptor 55. Nature of the test: SAR Analysis of Selective Antagonists of GPR55 using an Image-Based Assay - Set 3. [Related pubchem assays (depositor defined):AID2058, AID2079]. It counts as functional.
In test [7] the target is G-protein coupled receptor 35 (Homo sapiens, UniProt Q9HC97). Nature of the test: SAR analysis of Antagonists of the GPR35 Receptor using an Image-Based Assay - Set 5. [Related pubchem assays (depositor defined):AID2058, AID2079]. It counts as functional.
Test [8] can be described thus: NIH/3T3 cell viability loss – mouse embryonic fibroblasts, dry powder, set 2, cytotoxicity control, dose response (AID 493247). The note with it: Fibroblast. It counts as functional, cell-based.
Test [9] deals with Trypanosoma cruzi. Nature of the test: anti-trypanosomal activity in host cells – cell-based, plate reader, dry powder, set 3, dose response (AID 493197). It counts as functional.
The target of test [10] is Cytochrome P450 2D6 (Homo sapiens, UniProt P10635).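 Note: CYP2D6 member of a cytochrome P450 panel assay.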
The target in test [11] is Cytochrome P450 2C9 (Homo sapiens, UniProt P11712).
In test [12] the target is Perilipin-1/ABHD5 (Homo sapiens, UniProt O60240+Q8WTS1). Nature of the test: Luminescence-based biochemical high throughput dose response assay for inhibitors of the interaction of the lipase co-activator protein, abhydrolase domain containing 5 (ABHD5) with perilipin-1 (PLIN1) (2K validation set). [Related pubchem assays (depositor defined):AID493027, AID493057].
Test [13] deals with T3, Mannose-6-phosphate isomerase (Homo sapiens, UniProt P34949).
T3 sequence (P34949 whole entry): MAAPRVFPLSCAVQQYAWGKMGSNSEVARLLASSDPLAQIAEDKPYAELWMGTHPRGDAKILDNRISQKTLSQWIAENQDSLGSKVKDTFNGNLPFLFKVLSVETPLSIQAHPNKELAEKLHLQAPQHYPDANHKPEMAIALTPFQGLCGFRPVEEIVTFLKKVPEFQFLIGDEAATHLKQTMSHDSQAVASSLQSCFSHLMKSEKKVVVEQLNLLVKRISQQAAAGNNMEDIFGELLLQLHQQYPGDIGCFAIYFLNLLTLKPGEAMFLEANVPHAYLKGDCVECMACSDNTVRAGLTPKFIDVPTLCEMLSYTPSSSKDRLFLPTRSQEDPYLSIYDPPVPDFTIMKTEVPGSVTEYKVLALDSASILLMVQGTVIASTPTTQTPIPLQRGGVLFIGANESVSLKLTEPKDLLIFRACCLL
Nature of the test: MPI inhibition at elevated mannose 6-phosphate – biochemical, fluorescence intensity, high mannose 6-phosphate, primary screen (AID 1220).

The target in test [14] is 1-acylglycerol-3-phosphate O-acyltransferase ABHD5/Perilipin-5 (Homo sapiens, UniProt Q00G26+Q8WTS1). Nature of the test: Luminescence-based biochemical high throughput dose response assay for inhibitors of the interaction of the lipase co-activator protein, abhydrolase domain containing 5 (ABHD5) with perilipin-5 (MLDP; PLIN5) (2K validation set). [Related pubchem assays (depositor defined):AID493035, AID493241].

Test [15] is described as follows: cytotoxicity toward HCT116 cells – cell-based, CellTiter-Glo luminescence, IC50, dose response (AID 1117332). It counts as functional. The note with it: HCT-116. A general note: In ATP-based viability assays light output follows the ATP content of the culture.
Test [16] has as its target T4, Ubiquitin-conjugating enzyme E2 N (Homo sapiens, UniProt P61088).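 Note: Dose-response confirmation in a TR-FRET assay detecting UBC13-driven polyubiquitin chain formation, inhibition measured.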
T4 sequence (P61088 whole entry): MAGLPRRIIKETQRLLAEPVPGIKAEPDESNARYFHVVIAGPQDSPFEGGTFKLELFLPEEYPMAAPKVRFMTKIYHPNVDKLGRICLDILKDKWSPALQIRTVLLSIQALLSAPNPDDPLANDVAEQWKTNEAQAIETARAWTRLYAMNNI
It counts as functional.

The nature of test [17]: viability loss of HPDE-C7K cells – cell-based, fluorescence, HTS, primary screen (AID 431). It counts as functional. The following applies: Homo sapiens.
A short description of test [18]: CellTiter-Glo luminescence survival assay, SW480 colon tumor line, concentration-response curve, half-maximal inhibitory concentration (AID 1117338). The test is classed as functional.
A short description of test [19]: alpha-synuclein stem-loop luciferase translation blockers – H4 neuroglioma cells, luminescence, confirmation (AID 1988). The test is classed as functional, cell-based.
A short description of test [20]: HCT116 cell viability decrease, GSK3B pretreatment – CellTiter-Glo, IC50, dose response (AID 1117339). The test is classed as functional. The following applies: HCT-116.
Test [21] is described as follows: Trypanosoma cruzi growth suppression in host cells – NIH3T3 host cells, beta-gal luminescence, confirmation (AID 2044).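 Note: intracellular parasites grown in NIH/3T3 mouse fibroblasts as host cells; luminescent beta-galactosidase reporter signal from transgenic T. cruzi replicating inside host cells; inhibitors lower the luminescence signal.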 The test is classed as functional, cell-based.
The subject of test [22] is Saccharomyces cerevisiae. Nature of the test: S. cerevisiae Caspase-1/ASC signal blockers IC50, NALP1 inhibitor project selectivity test (AID 488863). The test is classed as functional, organism-based.
Test [23] has as its target T5, Microphthalmia-associated transcription factor (Homo sapiens, UniProt O75030).
T5 sequence (O75030 whole entry): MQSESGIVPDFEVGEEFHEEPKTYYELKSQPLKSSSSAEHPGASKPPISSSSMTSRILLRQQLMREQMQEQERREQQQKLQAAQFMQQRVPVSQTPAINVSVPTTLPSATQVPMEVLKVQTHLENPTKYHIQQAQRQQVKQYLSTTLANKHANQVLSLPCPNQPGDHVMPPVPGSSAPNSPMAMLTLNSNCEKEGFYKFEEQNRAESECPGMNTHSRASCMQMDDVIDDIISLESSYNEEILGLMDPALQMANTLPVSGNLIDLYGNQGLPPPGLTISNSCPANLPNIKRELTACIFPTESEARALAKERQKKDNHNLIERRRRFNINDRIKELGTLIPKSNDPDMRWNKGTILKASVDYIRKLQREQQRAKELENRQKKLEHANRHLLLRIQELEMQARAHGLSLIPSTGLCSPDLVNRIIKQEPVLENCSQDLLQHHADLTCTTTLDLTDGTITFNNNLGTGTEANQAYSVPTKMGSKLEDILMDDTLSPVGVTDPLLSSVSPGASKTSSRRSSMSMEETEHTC
Nature of the test: reducers of TRPM1 reporter luminescence, concentration series – cell-based, SK-MEL-5, cherry-picked, set 3, MITF inhibitor project, dose response (AID 493073).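 Note: SK-MEL-5 melanoma cells with luciferase driven by the MITF target TRPM1 promoter.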 It counts as functional.

Test [24] can be described thus: cytotoxicity toward Colo320 cells – cell-based, CellTiter-Glo luminescence, IC50, dose response (AID 1117334). The test is classed as functional. The following applies: COLO 320.
A short description of test [25]: Luminescence Cell-Based Dose Response HTS to Identify Inhibitors of 5'UTR Stem-Loop Driven Prion Protein mRNA Translation in H4 Neuroglioblastoma Cells. [Related pubchem assays: 1827 (Project Summary), 1813 (Primary HTS)]. It counts as functional.
Test [26] is described as follows: cytotoxicity toward HT-29 cells – cell-based, CellTiter-Glo luminescence, IC50, dose response (AID 1117330). The test is classed as functional.
Test [27] in a line: RKO cell viability reduction, dose response, CellTiter-Glo luminescence (AID 1117322). It counts as functional.
Test [28] deals with NACHT, LRR and PYD domains-containing protein 1 (Homo sapiens, UniProt Q9C000). Nature of the test: NALP1 inhibitors in yeast, dose response, luminescent (AID 488860). It counts as functional.
Test [29] is described as follows: HPDE-C7 pancreatic duct cell viability loss – fluorescence, HTS (AID 430). It counts as functional, cell-based. The following applies: Homo sapiens.
A short description of test [30]: NIH3T3 cell viability loss – ATP luminescence, mouse fibroblasts, counter-screen, dose response (AID 2010).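 Note: cells exposed to compound for about 90 hours before reading.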 The test is classed as functional, cell-based. Background: A counterscreen serves to expose hits that act by an unwanted route or on another target.
Test [31] has as its system INS1. Nature of the test: INS-1E survival protection against cytokine death – cell-based, luminescence, retest, dose response (AID 449756).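 Note: cell death triggered by IL-1 beta plus TNF-alpha plus IFN-gamma mixture; protective hits raise ATP signal compared with cytokine alone wells.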 The test is classed as functional. The note with it: Rattus norvegicus.
Test [32] can be described thus: SNU-C1 cell viability reduction, dose response, CellTiter-Glo luminescence (AID 1117323). The test is classed as functional, cell-based.
For test [33], the target named is T1, G-protein coupled receptor 55. Nature of the test: inhibition of LPI-stimulated GPR55 beta-arrestin translocation – imaging, U2OS, beta-arrestin-GFP, LPI agonist, primary screen (AID 2013).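 Note: antagonist potency measured as reduced agonist-driven arrestin aggregation.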 The test is classed as functional.
Test [34] in a line: luciferase reporter signal suppression in cells – H4 neuroglioma cells, luminescence, dose response (AID 1990). It counts as functional, cell-based. For orientation: In a reporter assay the amount or activity of a reporter protein is the signal.
Test [35] in a line: Reduced DLD-1 viability, concentration-response, CellTiter-Glo luminescence (AID 1117352). It counts as functional.

T1 sequence (Q9Y2T6 whole entry): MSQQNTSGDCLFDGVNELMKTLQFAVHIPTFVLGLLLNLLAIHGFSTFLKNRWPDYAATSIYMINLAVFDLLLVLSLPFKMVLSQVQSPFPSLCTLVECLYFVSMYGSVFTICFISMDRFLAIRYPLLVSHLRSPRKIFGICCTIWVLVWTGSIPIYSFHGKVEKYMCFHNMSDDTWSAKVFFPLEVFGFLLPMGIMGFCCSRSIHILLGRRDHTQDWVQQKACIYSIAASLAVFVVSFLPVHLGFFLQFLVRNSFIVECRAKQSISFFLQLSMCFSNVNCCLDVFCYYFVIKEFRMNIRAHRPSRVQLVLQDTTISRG
T2 sequence (P41145 whole entry): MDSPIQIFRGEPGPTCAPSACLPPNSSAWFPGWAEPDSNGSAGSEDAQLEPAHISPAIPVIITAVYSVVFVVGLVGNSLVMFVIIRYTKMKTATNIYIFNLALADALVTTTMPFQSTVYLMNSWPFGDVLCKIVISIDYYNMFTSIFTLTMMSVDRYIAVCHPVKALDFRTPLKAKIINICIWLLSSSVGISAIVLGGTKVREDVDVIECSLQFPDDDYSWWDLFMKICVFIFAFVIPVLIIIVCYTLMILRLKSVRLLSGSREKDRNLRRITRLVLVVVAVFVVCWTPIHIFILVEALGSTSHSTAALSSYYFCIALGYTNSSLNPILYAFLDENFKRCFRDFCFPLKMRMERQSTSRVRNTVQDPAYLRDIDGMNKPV
Sequence of Mu-type opioid receptor (P35372 whole entry): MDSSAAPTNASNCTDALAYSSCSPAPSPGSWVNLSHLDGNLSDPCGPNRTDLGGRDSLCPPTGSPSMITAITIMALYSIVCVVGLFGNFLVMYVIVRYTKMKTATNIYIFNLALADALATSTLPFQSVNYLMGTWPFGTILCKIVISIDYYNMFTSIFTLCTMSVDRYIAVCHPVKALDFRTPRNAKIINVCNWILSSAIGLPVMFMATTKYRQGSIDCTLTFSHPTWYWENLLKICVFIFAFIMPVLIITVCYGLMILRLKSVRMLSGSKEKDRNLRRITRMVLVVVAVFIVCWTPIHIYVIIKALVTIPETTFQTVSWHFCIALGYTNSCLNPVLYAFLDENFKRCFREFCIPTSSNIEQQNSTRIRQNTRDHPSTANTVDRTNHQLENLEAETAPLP
Sequence of Cytochrome P450 2C9 (P11712 whole entry, the tested form may be a part): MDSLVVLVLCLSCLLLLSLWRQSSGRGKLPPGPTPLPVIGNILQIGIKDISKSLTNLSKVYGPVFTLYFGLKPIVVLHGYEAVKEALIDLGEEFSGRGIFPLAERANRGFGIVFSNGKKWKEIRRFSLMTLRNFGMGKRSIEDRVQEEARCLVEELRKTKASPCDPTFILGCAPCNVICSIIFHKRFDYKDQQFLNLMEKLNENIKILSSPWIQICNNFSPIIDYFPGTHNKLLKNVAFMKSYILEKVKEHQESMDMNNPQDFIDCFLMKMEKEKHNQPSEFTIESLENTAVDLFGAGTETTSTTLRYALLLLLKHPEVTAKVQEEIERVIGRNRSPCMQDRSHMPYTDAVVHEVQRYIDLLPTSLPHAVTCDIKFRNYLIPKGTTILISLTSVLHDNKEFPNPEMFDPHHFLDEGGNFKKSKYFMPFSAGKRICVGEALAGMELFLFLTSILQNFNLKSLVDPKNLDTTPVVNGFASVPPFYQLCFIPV
Sequence of Perilipin-1/ABHD5 (Q8WTS1 whole entry, the tested form may be a part): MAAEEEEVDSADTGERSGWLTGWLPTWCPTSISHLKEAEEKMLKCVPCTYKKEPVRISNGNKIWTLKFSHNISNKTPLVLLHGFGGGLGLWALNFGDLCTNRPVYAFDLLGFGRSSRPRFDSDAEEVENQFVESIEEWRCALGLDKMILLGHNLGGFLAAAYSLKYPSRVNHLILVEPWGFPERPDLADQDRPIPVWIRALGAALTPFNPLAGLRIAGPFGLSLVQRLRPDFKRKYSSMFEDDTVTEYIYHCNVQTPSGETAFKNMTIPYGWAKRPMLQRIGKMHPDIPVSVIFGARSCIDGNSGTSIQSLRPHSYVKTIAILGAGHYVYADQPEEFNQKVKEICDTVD
Sequence of Perilipin-1/ABHD5 (O60240 whole entry, the tested form may be a part): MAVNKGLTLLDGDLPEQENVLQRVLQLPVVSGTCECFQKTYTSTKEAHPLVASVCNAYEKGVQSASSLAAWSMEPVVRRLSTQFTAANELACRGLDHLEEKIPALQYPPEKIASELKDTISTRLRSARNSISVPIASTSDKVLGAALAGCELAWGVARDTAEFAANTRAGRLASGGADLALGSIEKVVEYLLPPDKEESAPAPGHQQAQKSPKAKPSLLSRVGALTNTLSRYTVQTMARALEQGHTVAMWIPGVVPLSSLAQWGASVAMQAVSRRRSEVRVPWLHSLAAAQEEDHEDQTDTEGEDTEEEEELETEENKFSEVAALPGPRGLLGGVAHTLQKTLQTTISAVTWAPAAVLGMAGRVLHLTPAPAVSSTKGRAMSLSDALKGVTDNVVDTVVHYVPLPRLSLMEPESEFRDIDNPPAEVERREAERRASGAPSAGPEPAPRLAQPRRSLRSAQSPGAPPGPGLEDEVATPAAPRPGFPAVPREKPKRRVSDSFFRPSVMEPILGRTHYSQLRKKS
Sequence of G-protein coupled receptor 35 (Q9HC97 whole entry): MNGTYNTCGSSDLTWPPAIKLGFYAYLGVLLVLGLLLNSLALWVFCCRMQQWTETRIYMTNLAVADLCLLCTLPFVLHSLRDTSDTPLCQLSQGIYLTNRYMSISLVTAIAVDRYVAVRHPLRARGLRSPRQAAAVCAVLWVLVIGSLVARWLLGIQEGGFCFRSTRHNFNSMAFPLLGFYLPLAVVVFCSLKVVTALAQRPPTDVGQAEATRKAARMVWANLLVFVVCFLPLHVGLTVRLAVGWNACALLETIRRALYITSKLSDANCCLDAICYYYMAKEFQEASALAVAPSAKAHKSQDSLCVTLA
Sequence of Delta-type opioid receptor (P41143 whole entry): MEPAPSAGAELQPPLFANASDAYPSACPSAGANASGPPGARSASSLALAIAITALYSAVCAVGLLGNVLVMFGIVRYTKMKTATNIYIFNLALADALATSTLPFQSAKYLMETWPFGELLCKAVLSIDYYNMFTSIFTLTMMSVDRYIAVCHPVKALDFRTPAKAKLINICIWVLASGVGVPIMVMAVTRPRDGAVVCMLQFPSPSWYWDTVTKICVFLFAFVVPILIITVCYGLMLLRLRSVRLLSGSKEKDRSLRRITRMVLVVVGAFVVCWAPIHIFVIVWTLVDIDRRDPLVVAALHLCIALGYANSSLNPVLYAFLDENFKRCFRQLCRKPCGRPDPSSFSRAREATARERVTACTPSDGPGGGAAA
Sequence of Cytochrome P450 2D6 (P10635 whole entry): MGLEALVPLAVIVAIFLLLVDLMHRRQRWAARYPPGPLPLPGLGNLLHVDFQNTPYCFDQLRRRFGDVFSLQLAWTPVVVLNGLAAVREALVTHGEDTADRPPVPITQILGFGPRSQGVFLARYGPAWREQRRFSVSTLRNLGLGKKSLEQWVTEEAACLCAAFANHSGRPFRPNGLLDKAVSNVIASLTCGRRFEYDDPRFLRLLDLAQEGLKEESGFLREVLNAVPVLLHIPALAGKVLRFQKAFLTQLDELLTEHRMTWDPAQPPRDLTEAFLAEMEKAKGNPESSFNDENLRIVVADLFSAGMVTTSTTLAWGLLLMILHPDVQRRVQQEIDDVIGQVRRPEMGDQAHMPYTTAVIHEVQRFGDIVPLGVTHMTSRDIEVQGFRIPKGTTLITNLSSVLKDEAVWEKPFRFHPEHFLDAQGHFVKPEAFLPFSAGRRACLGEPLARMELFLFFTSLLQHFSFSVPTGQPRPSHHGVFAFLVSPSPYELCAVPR
Sequence of 1-acylglycerol-3-phosphate O-acyltransferase ABHD5/Perilipin-5 (Q00G26 whole entry, the tested form may be a part): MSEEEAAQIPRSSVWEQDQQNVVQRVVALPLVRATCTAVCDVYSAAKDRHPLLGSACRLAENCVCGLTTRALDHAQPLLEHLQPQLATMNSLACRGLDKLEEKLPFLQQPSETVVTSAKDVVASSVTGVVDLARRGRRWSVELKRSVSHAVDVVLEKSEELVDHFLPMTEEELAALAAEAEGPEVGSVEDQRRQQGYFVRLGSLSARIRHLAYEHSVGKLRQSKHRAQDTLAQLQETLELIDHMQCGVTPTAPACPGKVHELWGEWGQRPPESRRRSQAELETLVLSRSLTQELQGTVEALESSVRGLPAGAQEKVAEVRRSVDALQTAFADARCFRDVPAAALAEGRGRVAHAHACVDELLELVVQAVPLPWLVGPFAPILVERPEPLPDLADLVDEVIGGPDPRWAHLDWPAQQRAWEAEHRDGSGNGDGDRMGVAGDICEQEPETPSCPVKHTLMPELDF
Sequence of 1-acylglycerol-3-phosphate O-acyltransferase ABHD5/Perilipin-5 (Q8WTS1 whole entry, the tested form may be a part): as the sequence (Q8WTS1 whole entry, the tested form may be a part) above

Usually EC50 stands for the midpoint of the concentration-response curve. Consider `COc1ccc(-c2cc(C(F)(F)F)n3nc(C(=O)NCc4ccco4)cc3n2)cc1`, for which, in test [1], the EC50 is > 32 µM (inactive).

In general, IC50 refers to the point on the concentration scale where inhibition reaches its midpoint. As to `CCN(CCNC(=O)c1ccc(CNS(=O)(=O)c2ccccc2)cc1)Cc1ccccc1`, the IC50 in test [2] was 2.03 µM (active); in test [3], 4.86 µM (active); in test [4] it was 12.1 µM (inactive); in test [5], > 32 µM (inactive).

In the case of `COC(=O)c1cnn(-c2ccccc2)c1/C=N/NC(N)=S`, the IC50 in test [6] and in test [7] was > 32 µM (inactive) each time.

By AC50 is commonly meant the midpoint of the concentration-response curve, whichever way the signal moves. With `CCCNC(=O)C1(C)CCCN(Cc2ccc(Oc3ccccc3)cc2)C1` (stereo not given), the values for the AC50 in test [8] and in [9] were 22.9 µM (active) and 8.72 µM (active), respectively.

`Nc1cc(-c2ccncc2)c[nH]c1=O` [INAMRINONE]: the AC50 in test [10] and in [11] was 12.6 µM (inconclusive) in each case. The values for the IC50 in test [12], in test [13] and in [14] were > 79.5 µM (inactive), > 50 µM (not active) and 78.8 µM (inactive), respectively.

As to `C1CCC(C(CC2CCCCN2)C2CCCCC2)CC1` (stereo not given) [PERHEXILINE MALEATE], the IC50 in test [15] is > 20 µM (inactive); in test [16], > 20 µM (inactive); in test [18], 5.76 µM (inactive); in [20], 7.42 µM (inactive); in test [22], 15.9 µM (active); in test [24], 8.86 µM (inactive). In addition, the IC50 in test [26] was 6.87 µM (inactive); in [27] it was 7.85 µM (inactive); in test [28], 12.9 µM (active); in test [32], 2.48 µM (active); in [33], 3.19 µM (active); in test [35], > 20 µM (inactive). Also, the EC50 is 10.8 µM (active) in [17]; 8.95 µM (active) in test [19]; 3.13 µM (active) in test [21]; > 120 µM (not active) in test [25]; 11.7 µM (active) in [29]; 14.2 µM (active) in test [30]. The EC50 in test [34] is on record as > 120 µM (not active). In addition, the AC50 in test [23] is 18.8 µM (active); in [31], 6.42 µM (active).
